system: Penicillium fellutanum; experiment: Activity of Penicillium fellutanum exo-beta-D-galactofuranosidase by spectrophotometry

Compound | Km [µM]
CO[C@@H]1O[C@@H]([C@H](O)CO)[C@H](O)[C@H]1O | 2600
OC[C@@H](O)[C@@H]1O[C@@H](OCc2ccccc2)[C@H](O)[C@H]1O | 3700
O=[N+]([O-])c1ccc(O[C@@H]2O[C@@H]([C@H](O)CO)[C@H](O)[C@H]2O)cc1 | 310

target: not listed separately; experiment: Inhibition of Penicillium fellutanum exo-beta-D-galactofuranosidase by spectrophotometry

Compound | IC50 [µM]
CO[C@H]1CNC(=S)N1[C@@H]1O[C@@H]([C@H](O)CO)[C@H](O)[C@H]1O | 100
OC[C@@H](O)[C@@H]1O[C@@H](n2cc[nH]c2=S)[C@H](O)[C@H]1O | 1050

The remaining lines, values ahead:

IC50 [µM] | Compound
20 | O=C1O[C@@H]([C@H](O)CO)[C@H](O)[C@H]1O
600 | O=[N+]([O-])c1ccc(S[C@@H]2O[C@@H]([C@H](O)CO)[C@H](O)[C@H]2O)cc1
80 | Nc1ccc(S[C@@H]2O[C@@H]([C@H](O)CO)[C@H](O)[C@H]2O)cc1

— ChEMBL document CHEMBL1250421, “Synthesis of 5-deoxy-beta-D-galactofuranosides as tools for the characterization of beta-D-galactofuranosidases” (Bioorg Med Chem, 2010)
